For series [1], the target named is T1, rHuPH20 (Homo sapiens, UniProt P38567).
T1 construct: made in house; host or cells: CHO cells (DG44 CHO, HZ24 plasmid, clone 2B2)
T1 sequence (P38567 36-482): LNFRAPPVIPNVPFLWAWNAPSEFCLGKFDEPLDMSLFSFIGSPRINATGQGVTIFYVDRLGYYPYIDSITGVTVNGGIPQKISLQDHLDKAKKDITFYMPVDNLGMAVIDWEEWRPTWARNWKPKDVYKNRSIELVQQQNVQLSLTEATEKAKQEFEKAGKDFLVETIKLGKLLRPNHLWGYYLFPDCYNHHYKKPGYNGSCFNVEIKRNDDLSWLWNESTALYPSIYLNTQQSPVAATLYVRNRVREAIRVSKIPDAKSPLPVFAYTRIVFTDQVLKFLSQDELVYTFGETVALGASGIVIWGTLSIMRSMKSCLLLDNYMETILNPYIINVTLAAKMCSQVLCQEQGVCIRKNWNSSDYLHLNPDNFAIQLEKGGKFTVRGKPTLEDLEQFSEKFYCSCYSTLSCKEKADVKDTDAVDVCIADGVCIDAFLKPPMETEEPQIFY
As to the kind of experiment: Determination of hyaluronidase activity of rHuPH20, turbidimetric assay (Example 2, variant not specified). As to conditions: for Effect on rHuPH20 enzymatic activity: stabilizer screening in rHuPH20/insulin formulation, semi-quantitative in comparison with NaCl, samples incubated at 30° C. for about one week; for rHuPH20 enzymatic activity: 30° C. for one month, starting 650 U/mL. Type of series: biochemical.

Series [2] is described as follows: RP-HPLC: insulin apparent solubility / percent recovery. The procedure:
Apparent solubility was measured as the percent insulin recovery as compared to the initial formulations/conditions.
Samples were prepared by withdrawing 100 μL from each vial at every time point and centrifuging prior to loading. Samples were stored in an autosampler at 4° C. prior to use, and were considered stable for 3 days after preparation. All samples were tested in duplicate.
For insulin, 20 μL was injected for each HPLC run.
To determine the apparent solubility, the peak area of insulin/insulin analog main peak and desamido peak were integrated and combined together to calculate the percentage relative to the standards. […] The data were processed using Design-Expert® 7.0 (StatEase) and the “historical data” feature. Insulin percent purity was expressed as the percent of main insulin versus all insulin species.

Series [3] is described as follows: Lysyl lysine as buffer: titration curve and effect of temperature on pH. It is filed as physicochemical. As to conditions: rHuPH20/insulin glulisine formulations, 30-105 mM lysyl lysine.
Series [4] relates to Aspergillus niger, Pseudomonas aeruginosa, E. coli, Staphylococcus aureus and Candida albicans. As to the kind of experiment: Antimicrobial (preservative) effectiveness test, USP / EPA / EPB criteria. Type of series: cell-based. From the text:
One of skill in the art is familiar with the antimicrobial preservative effectiveness test and standards to be meet under the USP and EPA or EPB in order to meet minimum requirements. […] The preservative properties of the composition are deemed adequate if, under the conditions of the test, there is a significant fall or no increase, as specified in Table 6, below, in the number of microorganisms in the inoculated composition after the times and at the temperatures prescribed. The criteria for evaluation are given in terms of the log reduction in the number of viable microorganism as compared to the initial sample or the previous timepoint.
The number of viable microorganisms (cfu) in each sample is determined by plate count or membrane filtration. Finally, the cfu for each sample is compared to either the inoculum or the previous sample and log reduction is determined.
The tests were performed according to the guidance of EP and USP by a contract analytical laboratory (Quadrants Scientific, Inc., San Diego, Calif.). […] Raw data (CFU/mL) was converted to a log 10 unit reduction from the measured inoculum. […]
The tests were performed according to the guidance of EP and USP by a contract analytical laboratory (Quadrants Scientific, Inc., San Diego, Calif. and Lancaster Laboratories, Lancaster, Pa.). […] Raw data (CFU/mL) was converted to a log 10 unit reduction from the measured inoculum. […]

The conditions of series [5]: reported; cited from earlier work.
The target in series [6] is T1, rHuPH20. As to the kind of experiment: RP-HPLC: rHuPH20 oxidation peaks (ox-1, ox-2). As to conditions: 30° C.; for % of Oxidation Peak 1 of rHuPH20: 0.02% surfactant, 72 hours. It is filed as physicochemical. From the text: The stability of hyaluronan degrading enzymes in a composition, such as in the co-formulations provided herein, also can be assessed using other methods and assays known in the art. […] Percent recovery is the relative percentage of the hyaluronidase in the co-formulation over time and at various storage conditions, as compared to a reference sample. […] An increase in particle size and a decrease in the melting temperature indicates denaturation and subsequent aggregation of the hyaluronidase. […] Other methods known to one of skill in the art that can be used to determine the stability of the hyaluronidase in the co-formulations provided herein, include polyacrylamide gel electrophoresis (PAGE), immunoblotting, nuclear magnetic resonance (NMR) spectroscopy, mass spectrometry, circular dichroism (CD) and dye-based fluorescence assays.
The formulations varied in the surfactant and surfactant concentration and the buffer (either histidine or phosphate).
Methionine oxidation can be prevented by addition of free methionine as a scavenger to react with potential oxidative compounds.

Setting [7] is: stabilizer screening in rHuPH20/insulin formulation, semi-quantitative in comparison with NaCl, RP-HPLC, samples stored at 5° C.

Like-named read-outs stand apart in the source and are kept apart here.

Consider six compounds from patent US20130011378A1, “Stable formulations of a hyaluronan-degrading enzyme” (priority 2011, published 2013).

For `Cl.Cl.NCCCCC(N)C(=O)NC(CCCCN)C(=O)O` (centres unmarked) [Lys-Lys, Lys-Lys dihydrochloride], the “Effect on rHuPH20 enzymatic activity” value in series [1] is reported as “Strong stabilizer”. For the same compound, the “effect on rHuPH20 stability in comparison with NaCl” value in series [1] (stabilizer screening, 30° C. about one week, […] m-cresol, 0.2% phenol) was “stabilized rHuPH20 more than NaCl”. The “Effect on insulin solubility” value in series [2] (setting [7]) is given as “Reduced solubility”; in series [2] (stabilizer screening, samples stored at 5° C.), “caused severe precipitation of insulin”. Moreover, in series [3], the “temperature effect (dpH/dT)” value is −0.033 U/° C.

For `[Cl-].[Na+]` [NaCl], the “Effect on antimicrobial effectiveness” value in series [4] (component concentration (80-100 mM)) is recorded as “Neutral”.

On to `NC(CO)(CO)CO` [Tris], for which, in series [1], the “Effect on rHuPH20 enzymatic activity” value is listed as “No effect”. Also, the “Effect on insulin solubility” value in series [2] was “No effect”. Also, in series [5], the “temperature effect (dpH/dT)” value is −0.028 U/° C.

On to `CSCC[C@H](N)C(=O)O` [methionine], for which the rHuPH20 enzymatic activity came to 525 U/mL in series [1] (1 mM methionine) and 522 U/mL in series [1] (20 mM methionine). For the same compound, in series [1], the “Effect on rHuPH20 enzymatic activity” value is given as “No effect”. The “Effect on insulin solubility” value in series [2] (setting [7]) is recorded as “No effect”. For the same compound, in series [6] (40 mM methionine, rHuPH20/insulin formulation, 5 weeks), the “ox-1 peak of rHuPH20 compared to formulations without methionine” value is “significantly smaller”. Also, the “Effect on antimicrobial effectiveness” value in series [4] (component concentration (50-100 mM), formulations with 100 U/mL insulin or analog and 5 μg/mL rHuPH20) is given as “Neutral”.

As for Polysorbate 20, the “% of Oxidation Peak 1 of rHuPH20” value in series [6] (Methionine 0 mM) stood at 4.01%; in series [6] (Methionine 2 mM) it was 3.43%; in series [6] (Methionine 10 mM) it was 3.37%; in series [6] (Methionine 50 mM), 3.38%.

Turning to Polysorbate 80, the “% of Oxidation Peak 1 of rHuPH20” value worked out at 4.01% in series [6] (Methionine 0 mM), 3.50% in series [6] (Methionine 2 mM), 3.44% in series [6] (Methionine 10 mM) and 3.34% in series [6] (Methionine 50 mM).
